# In US7161032B2, “Sulfonamide derivatives, insecticides for agricultural and horticultural use, and usage thereof” (Nihon Nohyaku Co., Ltd., priority 2002, dated 2007):
# How the values were obtained:
# Format in all cases: in vivo
# [1] = tested on: Smaller Tea Tortrix (Adoxophyes sp.); experiment: Insecticidal effect on smaller tea tortrix (Test Example 3): tea leaves immersed in 50 ppm liquid chemical; settings: smaller tea tortrix (Adoxophyes sp.) larvae, 8 days after inoculation, 25° C., humidity 70%
# Experimental: Tea leaves were immersed for about 30 seconds in a liquid chemical prepared by diluting a preparation containing each compound listed in Table 1 or 2 as an active ingredient to adjust the concentration to 50 ppm. After air-dryness, the tea leaves were placed in a plastic Petri dish with a diameter of 9 cm and inoculated with larvae of smaller tea tortrix, after which the dish was allowed to stand in a room thermostated at 25° C. and having a humidity of 70%. Eight days after the inoculation, the dead and alive were counted and the insecticidal effect was judged according to the criterion shown in Test Example 1. The test was carried out with triplicate groups of 10 insects.
# [2] = tested on: Common Cutworm (Spodoptera litura); experiment: Insecticidal effect on common cutworm (Test Example 2): cabbage leaf piece immersed in 50 ppm liquid chemical; settings: common cutworm (Spodoptera litura) second-instar larvae, 8 days after inoculation, 25° C.
# Experimental: A piece of cabbage leaf (cultivar: Shikidori) was immersed for about 30 seconds in a liquid chemical prepared by diluting a preparation containing each compound listed in Table 1 or 2 as an active ingredient to adjust the concentration to 50 ppm. After air-dryness, it was placed in a plastic Petri dish with a diameter of 9 cm and inoculated with second-instar larvae of common cutworm, after which the dish was closed and then allowed to stand in a room thermostated at 25° C. Eight days after the inoculation, the dead and alive were counted. The mortality was calculated according to the following equation and the insecticidal effect was judged according to the criterion shown in Test Example 1. The test was carried out with triplicate groups of 10 insects. [formula]
# [3] = tested on: Diamond Back Moth (Plutella xylostella); experiment: Insecticidal effect on diamond back moth (Test Example 1): egg-bearing Chinese cabbage seedling immersed in 50 ppm liquid chemical
# Experimental: Adult diamond back moths were released and allowed to oviposit on a Chinese cabbage seedling. Two days after the release, the seedling having the eggs deposited thereon was immersed for about 30 seconds in a liquid chemical prepared by diluting a preparation containing each compound listed in Table 1 or 2 as an active ingredient to adjust the concentration to 50 ppm. After air-dryness, it was allowed to stand in a room thermostated at 25° C. Six days after the immersion, the hatched insects were counted. The mortality was calculated according to the following equation and the insecticidal effect was judged according to the criterion shown below. The test was carried out with triplicate groups of 10 insects. [formula]
SMILES,"Insecticidal effect (mortality grade), Test Example 3 [1]","Insecticidal effect (mortality grade), Test Example 2 [2]","Insecticidal effect (mortality grade), Test Example 1 [3]"
CCNS(=O)(=O)CC(C)NC(=O)c1c(I)cccc1C(=O)Nc1ccc(OC(F)(F)F)cc1C (stereo not drawn) [1-275],E (Mortality less than 50%),E (Mortality less than 50%),A (Mortality 100%)
Cc1cc(C(F)(F)C(F)(F)F)ccc1NC(=O)c1cccc(I)c1C(=O)NC(C)(C)CS(=O)(=O)NCC[S+](C)[O-] (stereo not drawn) [1-305],A (Mortality 100%),A (Mortality 100%),A (Mortality 100%)
Cc1cc(C(F)(C(F)(F)F)C(F)(F)F)ccc1NC(=O)c1cccc(I)c1C(=O)NC(C)CS(=O)(=O)NCc1cccnc1 (stereo not drawn) [1-40],A (Mortality 100%),A (Mortality 100%),A (Mortality 100%)
Cc1cc(C(F)(C(F)(F)F)C(F)(F)F)ccc1NC(=O)c1cccc(Br)c1C(=O)NC(C)CS(=O)(=O)NC(C)C (stereo not drawn) [1-216],A (Mortality 100%),A (Mortality 100%),A (Mortality 100%)
CCN(Cc1ccccc1)S(=O)(=O)CC(C)NC(=O)c1c(I)cccc1C(=O)Nc1ccc(C(F)(C(F)(F)F)C(F)(F)F)cc1C (stereo not drawn) [1-43],A (Mortality 100%),A (Mortality 100%),A (Mortality 100%)
Cc1cc(C(F)(C(F)(F)F)C(F)(F)F)ccc1NC(=O)c1cccc(I)c1C(=O)NC(C)CS(=O)(=O)NC(C)(C)C (stereo not drawn) [1-14],A (Mortality 100%),A (Mortality 100%),A (Mortality 100%)
Cc1cc(C(F)(C(F)(F)F)C(F)(F)F)ccc1NC(=O)c1cccc(I)c1C(=O)NC(C)CS(=O)(=O)Nc1ccc(F)cc1 (stereo not drawn) [1-110],E (Mortality less than 50%),E (Mortality less than 50%),A (Mortality 100%)
Cc1cc(C(F)(C(F)(F)F)C(F)(F)F)ccc1NC(=O)c1cccc(I)c1C(=O)NC(C)(C)CS(=O)(=O)NCC[S+]([O-])c1ccccc1 (stereo not drawn) [1-88],A (Mortality 100%),A (Mortality 100%),A (Mortality 100%)
Cc1cc(C(C(F)(F)F)C(F)(F)F)ccc1NC(=O)c1cccc(I)c1C(=O)NC(C)CS(N)(=O)=O (stereo not drawn) [1-342],A (Mortality 100%),A (Mortality 100%),A (Mortality 100%)
Cc1cc(C(F)(C(F)(F)F)C(F)(F)F)ccc1NC(=O)c1cccc(I)c1C(=O)NC(C)CS(=O)(=O)NCc1ccccc1 (stereo not drawn) [1-22],A (Mortality 100%),A (Mortality 100%),A (Mortality 100%)
COC(=O)N1CCN(S(=O)(=O)CC(C)NC(=O)c2c(I)cccc2C(=O)Nc2ccc(C(F)(C(F)(F)F)C(F)(F)F)cc2C)CC1 (stereo not drawn) [1-66],A (Mortality 100%),A (Mortality 100%),A (Mortality 100%)
Cc1cc(C(F)(C(F)(F)F)C(F)(F)F)ccc1NC(=O)c1cccc(I)c1C(=O)NC(C)(C)CS(=O)(=O)N1CCSCC1 [1-58],E (Mortality less than 50%),A (Mortality 100%),A (Mortality 100%)
CCNS(=O)(=O)CC(C)(C)NC(=O)c1c(I)cccc1C(=O)Nc1ccc(C(F)(C(F)(F)F)C(F)(F)F)cc1C [1-178],A (Mortality 100%),A (Mortality 100%),A (Mortality 100%)
Cc1cc(C(F)(C(F)(F)F)C(F)(F)F)ccc1NC(=O)c1cccc(I)c1C(=O)NC(C)CS(=O)(=O)N1CCOCC1 (stereo not drawn) [1-54],A (Mortality 100%),A (Mortality 100%),A (Mortality 100%)
Cc1cc(C(F)(C(F)(F)F)C(F)(F)F)ccc1NC(=O)c1cccc(I)c1C(=O)NC(C)(C)CS(=O)(=O)N1CCCC1 [1-181],A (Mortality 100%),A (Mortality 100%),A (Mortality 100%)
CSc1ccc(NS(=O)(=O)CC(C)NC(=O)c2c(I)cccc2C(=O)Nc2ccc(C(F)(C(F)(F)F)C(F)(F)F)cc2C)cc1 (stereo not drawn) [1-112],E (Mortality less than 50%),E (Mortality less than 50%),A (Mortality 100%)
Cc1cc(C(F)(C(F)(F)F)C(F)(F)F)ccc1NC(=O)c1cccc(I)c1C(=O)NC(C)(C)CS(=O)(=O)N1CC[S+]([O-])CC1 [1-59],E (Mortality less than 50%),A (Mortality 100%),A (Mortality 100%)
COCCNS(=O)(=O)CC(C)(C)NC(=O)c1c(I)cccc1C(=O)Nc1ccc(C(F)(C(F)(F)F)C(F)(F)F)cc1C [1-79],A (Mortality 100%),A (Mortality 100%),A (Mortality 100%)
Cc1cc(C(F)(C(F)(F)F)C(F)(F)F)ccc1NC(=O)c1cccc(I)c1C(=O)NC(C)(C)CS(=O)(=O)N1CC[S+]([O-])CC1C (stereo not drawn) [1-62],A (Mortality 100%),A (Mortality 100%),A (Mortality 100%)
Cc1cc(C(F)(C(F)(F)F)C(F)(F)F)ccc1NC(=O)c1cccc(I)c1C(=O)N[C@@H](C)CS(=O)(=O)N[C@@H](C)C[S+](C)[O-] (stereo partly drawn) [1-148],A (Mortality 100%),A (Mortality 100%),A (Mortality 100%)
CCSCCNS(=O)(=O)CC(C)(C)NC(=O)c1c(I)cccc1C(=O)Nc1ccc(C(F)(C(F)(F)F)C(F)(F)F)cc1C [1-84],A (Mortality 100%),A (Mortality 100%),A (Mortality 100%)
COCCNS(=O)(=O)CC(C)NC(=O)c1c(I)cccc1C(=O)Nc1ccc(C(F)(C(F)(F)F)C(F)(F)F)cc1C (stereo not drawn) [1-73],A (Mortality 100%),A (Mortality 100%),A (Mortality 100%)
C#CCNS(=O)(=O)CC(C)NC(=O)c1c(I)cccc1C(=O)Nc1ccc(C(F)(C(F)(F)F)C(F)(F)F)cc1C (stereo not drawn) [1-21],A (Mortality 100%),A (Mortality 100%),A (Mortality 100%)
CC[S+]([O-])CCNS(=O)(=O)CC(C)(C)NC(=O)c1c(I)cccc1C(=O)Nc1ccc(C(F)(C(F)(F)F)C(F)(F)F)cc1C (stereo not drawn) [1-85],A (Mortality 100%),A (Mortality 100%),A (Mortality 100%)
CCN(CC)S(=O)(=O)CC(C)NC(=O)c1c(Br)cccc1C(=O)Nc1ccc(C(F)(C(F)(F)F)C(F)(F)F)cc1C (stereo not drawn) [1-214],A (Mortality 100%),A (Mortality 100%),A (Mortality 100%)
Cc1cc(C(F)(C(F)(F)F)C(F)(F)F)ccc1NC(=O)c1cccc(I)c1C(=O)NC(C)CS(=O)(=O)NC(C)C(N)=O (stereo not drawn) [1-103],A (Mortality 100%),A (Mortality 100%),A (Mortality 100%)
COc1ccc(CNS(=O)(=O)CC(C)NC(=O)c2c(I)cccc2C(=O)Nc2ccc(C(F)(C(F)(F)F)C(F)(F)F)cc2C)cc1 (stereo not drawn) [1-35],A (Mortality 100%),A (Mortality 100%),A (Mortality 100%)
Cc1cc(C(F)(C(F)(F)F)C(F)(F)F)ccc1NC(=O)c1cccc(I)c1C(=O)NC(C)(C)CS(=O)(=O)NCc1ccccc1 [1-184],A (Mortality 100%),A (Mortality 100%),A (Mortality 100%)
